# In patent US9999222B2, “Herbicidal combination comprising azines” (BASF SE, priority 2014, dated 2018):
# Several values for one entry are separate records, joined by “and”; a condition that tells them apart may be missing. Equal entries are not always repeated. Where two headings read alike, the source gives them in different places.
# Key:
# Test in all cases: Greenhouse test, pre-emergence treatment
# ALOMY = assay type: in vivo, Alopecurus myosuroides; conditions: pre-emergence, pre-emergence
# How it was run: (§1)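 Damage was rated on a 0-100 scale, with 100 meaning no emergence or full destruction of aerial parts. Observed combination effects were set against the additive Colby expectation E=X+Y−(X·Y/100). Spray liquor was water-based, from 10% emulsion concentrates, applied pre-emergence right after sowing in loamy sand (about 3.0% humus). Plants were held at 10-25 °C or 20-35 °C for 2 to 4 weeks.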
# SIDRH = assay type: in vivo, Sida rhombifolia; conditions: pre-emergence
# How it was run: as §1
# ELEIN = assay type: in vivo, Eleusine indica
# Excerpt: The culture containers used were plastic flowerpots containing loamy sand with approximately 3.0% of humus as the substrate. The seeds of the test plants were sown separately for each species.
# For the pre-emergence treatment, the active ingredients, which had been suspended or emulsified in water, were applied directly after sowing by means of finely distributing nozzles. The containers were irrigated gently to promote germination and growth and subsequently covered with transparent plastic hoods until the plants had rooted. This cover caused uniform germination of the test plants, unless this had been impaired by the active ingredients.
# Depending on the species, the plants were kept at 10-25° C. or 20-35° C., respectively.
# The test period extended over 2 to 4 weeks. During this time, the plants were tended, and their response to the individual treatments was evaluated.
# Evaluation was carried out using a scale from 0 to 100. 100 means no emergence of the plants, or complete destruction of at least the aerial moieties, and 0 means no damage, or normal course of growth. A moderate herbicidal activity is given at values of at least 60, a good herbicidal activity is given at values of at least 70, and a very good herbicidal activity is given at values of at least 85.
# The respective stated components a and b, and if appropriate, c were formulated as a 10% by weight strength emulsion concentrate and, with addition of the amount of solvent system, introduced into the spray liquor used for applying the active compound.
# In the examples, the solvent used was water.
# In the examples below, using the method of S. R. Colby (1967) “Calculating synergistic and antagonistic responses of herbicide combinations”, Weeds 15, p. 22ff., the value E, which is expected if the activity of the individual active compounds is only additive, was calculated. E=X+Y−(X·Y/100) where • X=percent activity using active compound a at an application rate A; • Y=percent activity using active compound b at an application rate B; • E=expected activity (in %) by a+b at application rates A+B.
# If the value found experimentally is higher than the value E calculated according to Colby, a synergistic effect is present.
# PHACA = assay type: in vivo, Phalaris canariensis; conditions: Phalaris canariensis, pre-emergence, 480 h, pre-emergence, read-out: observed % activity 20 DAT
# How it was run: as §1
# GALAP = assay type: in vivo, Galium aparine; conditions: pre-emergence
# How it was run: as §1
# ABUTH = assay type: in vivo, Abutilon theophrasti; conditions: Abutilon theophrasti, 480 h, read-out: observed % activity 20 DAT
# How it was run: as §1
# GERPU = assay type: in vivo, Geranium pusillum; conditions: pre-emergence
# How it was run: as §1
# LOLMU = assay type: in vivo, Lolium multiflorum; conditions: Lolium multiflorum, pre-emergence, 480 h, pre-emergence, read-out: observed % activity 20 DAT
# How it was run: as §1
# [1] = Alopecurus myosuroides, 480 h, 2 g ai/ha, read-out: observed % activity 20 DAT
# [2] = Sida rhombifolia, 480 h, 8 g ai/ha, read-out: observed % activity 20 DAT
# [3] = Galium aparine, 480 h, 4 g ai/ha, read-out: observed % activity 20 DAT
# [4] = Galium aparine, 480 h, 8 g ai/ha, read-out: observed % activity 20 DAT
compound,measurement,setting,value
"Nc1nc(Nc2c(F)c(F)cc(F)c2F)nc(C2(F)CCCC2)n1 [compound 9, 6-(1-fluorocyclopentyl)-N4-(2,3,5,6-tetrafluorophenyl)-1,3,5-triazine-2,4-diamine]",inhibition at 2 g/ha,ALOMY; [1],75%
same,pest or weed control at 2 g/ha,ALOMY; [1],75%
same,pest or weed control at 8 g/ha,"ALOMY; Alopecurus myosuroides, 480 h, 8 g ai/ha, read-out: observed % activity 20 DAT",98%
same,observed % activity 20 DAT,ALOMY; 2 g ai/ha,70%
same,observed % activity 20 DAT,ALOMY; 4 g ai/ha,45%
same,observed % activity 20 DAT,"SIDRH; SIDRH, individual, use rate 8 g ai/ha",15%
same,observed % activity 20 DAT,"SIDRH; SIDRH, individual, use rate 16 g ai/ha",55%
same,pest or weed control at 4 g/ha,"SIDRH; Sida rhombifolia, 480 h, 4 g ai/ha, read-out: observed % activity 20 DAT",10%
same,pest or weed control at 8 g/ha,SIDRH; [2],10%
same,inhibition at 8 g/ha,"SIDRH; Sida rhombifolia, 480 h, SIDRH, individual, use rate 8 g ai/ha, read-out: observed % activity 20 DAT",25%
same,inhibition at 8 g/ha,SIDRH; [2],25%
same,inhibition at 16 g/ha,"SIDRH; Sida rhombifolia, 480 h, 16 g ai/ha, read-out: observed % activity 20 DAT",30%
same,observed % activity 20 DAT,ELEIN; 2 g ai/ha,95%
same,inhibition at 2 g/ha,"ELEIN; Eleusine indica, 480 h, 2 g ai/ha, read-out: observed % activity 20 DAT",95%
same,inhibition at 4 g/ha,"ELEIN; Eleusine indica, 480 h, 4 g ai/ha, read-out: observed % activity 20 DAT",98%
same,inhibition at 2 g/ha,PHACA; 2 g ai/ha,0%
same,pest or weed control at 2 g/ha,PHACA; 2 g ai/ha,0%
same,inhibition at 8 g/ha,PHACA; 8 g ai/ha,50%
same,pest or weed control at 8 g/ha,PHACA; 8 g ai/ha,70%
same,observed % activity 20 DAT,"GALAP; GALAP, individual, use rate 8 g ai/ha",50%
same,pest or weed control at 4 g/ha,GALAP; [3],55%
same,pest or weed control at 8 g/ha,GALAP; [4],90%
same,inhibition at 8 g/ha,"GALAP; Galium aparine, 480 h, GALAP, individual, use rate 8 g ai/ha, read-out: observed % activity 20 DAT",70%
same,inhibition at 16 g/ha,"GALAP; Galium aparine, 480 h, GALAP, individual, use rate 16 g ai/ha, read-out: observed % activity 20 DAT",60%
same,inhibition at 4 g/ha,GALAP; [3],55%
same,inhibition at 8 g/ha,GALAP; [4],70%
same,inhibition at 16 g/ha,"GALAP; Galium aparine, 480 h, 16 g ai/ha, read-out: observed % activity 20 DAT",60%
same,pest or weed control at 4 g/ha,ABUTH; 4 g ai/ha,55%
same,inhibition at 8 g/ha,ABUTH; 8 g ai/ha,20%
same,pest or weed control at 8 g/ha,ABUTH; 8 g ai/ha,40%
same,inhibition at 16 g/ha,ABUTH; 16 g ai/ha,20%
same,inhibition at 8 g/ha,"ABUTH; ABUTH, individual, use rate 8 g ai/ha",20%
same,inhibition at 16 g/ha,"ABUTH; ABUTH, individual, use rate 16 g ai/ha",20%
same,observed % activity 20 DAT,"GERPU; GERPU, individual, use rate 16 g ai/ha",30% and 60%
same,inhibition at 8 g/ha,"GERPU; Geranium pusillum, 480 h, GERPU, individual, use rate 8 g ai/ha, read-out: observed % activity 20 DAT",40%
same,pest or weed control at 4 g/ha,"GERPU; Geranium pusillum, 480 h, 4 g ai/ha, read-out: observed % activity 20 DAT",20%
same,inhibition at 8 g/ha,"GERPU; Geranium pusillum, 480 h, 8 g ai/ha, read-out: observed % activity 20 DAT",40%
same,observed % activity 20 DAT,GERPU; 16 g ai/ha,60% and 30%
same,inhibition at 2 g/ha,LOLMU; 2 g ai/ha,0%
same,pest or weed control at 2 g/ha,LOLMU; 2 g ai/ha,0%
same,inhibition at 8 g/ha,LOLMU; 8 g ai/ha,75%
same,pest or weed control at 8 g/ha,LOLMU; 8 g ai/ha,75%
